Results from PubChem BioAssay (NCI).
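A five-concentration, 48-hour dose response in 96-well plates underlies each endpoint, interpolated linearly between surrounding concentrations. TGI denotes the concentration required for complete inhibition of growth.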

What was measured:
Assay in all cases: NCI-60 cell line screen, 48 h
HCT-15 colon = system: HCT-15 colon
MOLT-4 leukemia = system: MOLT-4 leukemia
RPMI-8226 leukemia = system: RPMI-8226 leukemia
SN12C renal = system: SN12C renal
HOP-62 NSCLC = system: HOP-62 NSCLC
RXF 393 renal = system: RXF 393 renal
NCI-H522 lung = system: NCI-H522 lung
HL-60(TB) leukemia = system: HL-60(TB) leukemia
SK-MEL-2 melanoma = system: SK-MEL-2 melanoma
IGROV1 ovarian = system: IGROV1 ovarian
HCC-2998 colon = system: HCC-2998 colon
K-562 leukemia = system: K-562 leukemia
SR leukemia = system: SR leukemia
TK-10 renal = system: TK-10 renal
MDA-MB-231 breast = system: MDA-MB-231 breast
HS 578T breast = system: HS 578T breast
MDA-N = system: MDA-N
PC-3 prostate = system: PC-3 prostate
MDA-MB-435 = system: MDA-MB-435

Row | Compound | TGI (HCT-15 colon) [µM] | TGI (MOLT-4 leukemia) [µM] | TGI (RPMI-8226 leukemia) [µM] | TGI (SN12C renal) [µM] | TGI (HOP-62 NSCLC) [µM] | TGI (RXF 393 renal) [µM] | TGI (NCI-H522 lung) [µM] | TGI (HL-60(TB) leukemia) [µM] | TGI (SK-MEL-2 melanoma) [µM] | TGI (IGROV1 ovarian) [µM] | TGI (HCC-2998 colon) [µM] | TGI (K-562 leukemia) [µM] | TGI (SR leukemia) [µM] | TGI (TK-10 renal) [µM] | TGI (MDA-MB-231 breast) [µM] | TGI (HS 578T breast) [µM] | TGI (MDA-N) [µM] | TGI (PC-3 prostate) [µM] | TGI (MDA-MB-435) [µM]
1 | C=CC12CN(C)C3C4COC(CC41)C1(C(=O)Nc4ccccc41)C32 (centres undefined) | > 200 | > 200 | > 200 | > 200 | > 200 | > 200 | > 200 | > 186 | > 200 | > 200 | > 200 | > 200 | – | – | – | – | – | – | –
2 | CC(CCCOC(c1ccccc1)(c1ccccc1)c1ccccc1)OC(=O)Nc1cc([N+](=O)[O-])cc([N+](=O)[O-])c1 (centres undefined) | > 100 | > 100 | > 100 | > 100 | 83.4 | > 100 | 59.5 | 85.3 | 78.9 | > 100 | > 100 | > 100 | > 100 | – | – | – | – | – | –
3 | CC(C)(C)OC(=O)CN1CCNCCN(CC(=O)OC(C)(C)C)CC1 | > 100 | > 100 | > 100 | > 100 | > 100 | – | > 100 | 86.1 | > 100 | > 100 | > 100 | > 100 | > 100 | > 100 | > 100 | > 100 | > 100 | > 100 | –
4 | CC(C)CNC(=O)Cn1c2c(c3ccccc31)CCCC2 | > 100 | > 100 | > 100 | > 100 | > 100 | – | – | > 100 | > 100 | > 100 | > 100 | > 100 | > 100 | > 100 | – | > 100 | > 100 | > 100 | > 100
5 | CCCCCCCCCCCC1N=C(N)NC(CCCO)=C1C(=O)OC (centres undefined) | 29.7 | 4.75 | 4.78 | > 100 | 8.53 | – | 3.72 | 2.81 | – | 4.73 | 5.02 | 4.49 | > 100 | 12.5 | 6.6 | 3.39 | > 100 | 3.93 | –
6 | Cn1c(=O)nc2n(-c3ccc(Cl)cc3Cl)c3ccccc3nc-2c1=O | 15.4 | 35.7 | > 100 | – | 23.9 | 15.4 | – | 27.8 | 17.4 | 27 | 14.5 | 22.6 | > 100 | 54.2 | – | – | – | – | –
7 | CC1=NN(C(=O)c2ccc(Cl)cc2)C(=O)/C1=C/c1cccc([N+](=O)[O-])c1 | > 100 | – | > 100 | > 100 | > 100 | > 100 | > 100 | > 100 | > 100 | > 100 | > 100 | > 100 | – | > 100 | – | – | – | – | –
8 | CCOC(=O)CN1CCSC1=NC#N | > 100 | > 100 | > 100 | > 100 | > 100 | > 100 | > 100 | > 100 | > 100 | > 100 | > 100 | > 100 | – | – | – | – | – | – | –
9 | CC(=O)Nc1ccc(N2C(=O)/C(=C\c3cccc(Oc4ccccc4)c3)SC2c2ccccc2)cc1 (centres undefined) | > 100 | 68.5 | 58.3 | 97 | 56.6 | > 100 | 58.4 | > 100 | > 100 | – | > 100 | > 100 | 56.4 | > 100 | > 100 | 66.3 | 42.3 | – | > 100
10 | Cc1ccc(-n2cnc3c(N/N=C4\SCC(=O)N4c4ccccc4)ncnc32)cc1 | 11.5 | 5.48 | – | 11.7 | 28.9 | 5.8 | 7.28 | 4.29 | 8.42 | 15 | – | > 100 | – | 14.3 | 10.5 | 26.6 | – | 17.8 | 13.3
11 | COc1cc2c(c(OC)c1OC)C(=O)[C@H]1OC(=O)N[C@@H]21 | > 100 | > 100 | > 100 | > 100 | > 100 | > 100 | – | > 100 | > 100 | – | > 100 | > 100 | > 100 | > 100 | > 100 | > 100 | – | > 100 | > 100
12 | N#Cc1c2c([nH]c(=O)c1C#N)CCCC2 | > 100 | > 100 | – | > 100 | – | > 100 | – | > 100 | > 100 | > 100 | > 100 | > 100 | – | > 100 | > 100 | > 100 | > 100 | > 100 | > 100
13 | Cn1c(COC(=O)NC2CCCCC2)c(COC(=O)NC2CCCCC2)c2ccc3cc(Cl)c(Cl)cc3c21 | 24.7 | 54.4 | – | 23.9 | – | 21.4 | – | 26.4 | 28.5 | 39.1 | 26.6 | 15.7 | – | 30.6 | 22.1 | 23.6 | 25.4 | 32.9 | 49.4
14 | CC1=CCS(=O)(=O)C1C(O)C1=C(C)CCCC1(C)C (centres undefined) | > 100 | > 100 | > 100 | > 100 | > 100 | > 100 | > 100 | > 100 | > 100 | > 100 | > 100 | > 100 | – | > 100 | > 100 | – | > 100 | > 100 | > 100
15 | CC(C)=CCC/C(C)=C/Cc1c(O)ccc2c1[nH]c1cc(O)c(C)cc12 | > 25 | > 25 | > 25 | > 25 | 23.4 | > 25 | > 25 | > 25 | > 25 | > 25 | > 25 | > 25 | > 25 | > 25 | – | – | – | – | –
